According to PubChem BioAssay AID330 (DTP/NCI, 2004):
Values joined by “and” are separate entries in the source; they are usually repeats but may differ in a detail not shown here. Equal entries are not always repeated. Inconclusive results and toxic doses are left out. Square brackets hold non-standard residues; d marks the D form. Peptide text beside a SMILES is read from it. * marks the point of attachment. ξ: configuration not given here. ξF = NC(Cc1ccccc1)C(=O)O; Cbz = O=C(OCc1ccccc1)*

Tested on: P388 leukemia ip, CD2F1 mice, survival T/C
Experiment: NCI In Vivo Anticancer Drug Screen. Data for tumor model P388 Leukemia (intraperitoneal) in CD2F1 (CDF1) mice
Settings: endpoint: median survival time, higher = longer survival
How it was run: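 Mice carrying the transplanted tumor received test compound or vehicle. Survival was recorded in each group, and the value is the treated-group measurement divided by that of the vehicle-treated control group.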

[1] = dose: 50.0 mg/kg/injection, schedule: Q01DX009 (ip), vehicle: Klucel (hydroxypropylcellulose) (HPC)
[2] = dose: 100.0 mg/kg/injection, schedule: Q01DX009 (ip), vehicle: Klucel (hydroxypropylcellulose) (HPC)
[3] = dose: 200.0 mg/kg/injection, schedule: Q01DX009 (ip), vehicle: Klucel (hydroxypropylcellulose) (HPC)
[4] = dose: 60.0 mg/kg/injection, schedule: Q01DX005 (ip), vehicle: saline with Tween-80
[5] = dose: 120.0 mg/kg/injection, schedule: Q01DX005 (ip), vehicle: saline with Tween-80
[6] = dose: 240.0 mg/kg/injection, schedule: Q01DX005 (ip), vehicle: saline with Tween-80
[7] = dose: 100.0 mg/kg/injection, schedule: Q04DX003 (ip), vehicle: saline with Tween-80
[8] = dose: 200.0 mg/kg/injection, schedule: Q04DX003 (ip), vehicle: saline with Tween-80
[9] = dose: 400.0 mg/kg/injection, schedule: Q04DX003 (ip), vehicle: saline with Tween-80
[10] = dose: 50.0 mg/kg/injection, schedule: Q01DX009 (ip), vehicle: saline
[11] = dose: 100.0 mg/kg/injection, schedule: Q01DX009 (ip), vehicle: saline
[12] = dose: 200.0 mg/kg/injection, schedule: Q01DX009 (ip), vehicle: saline
[13] = dose: 50.0 mg/kg/injection, schedule: Q01DX005 (ip), vehicle: saline with Tween-80
[14] = dose: 100.0 mg/kg/injection, schedule: Q01DX005 (ip), vehicle: saline with Tween-80
[15] = dose: 200.0 mg/kg/injection, schedule: Q01DX005 (ip), vehicle: saline with Tween-80

CCC12C=CCN3CCC4(c5cc(C6c7[nH]c8ccccc8c7CCN7CCCCC67)c(OC)cc5N(C)C4C(O)(C(=O)OC)C1OC(C)=O)C32 (stereo not given)
T/C (dose: 0.06 mg/kg/injection, schedule: Q01DX009 (ip), vehicle: Klucel (hydroxypropylcellulose) (HPC)): 115 % of control
T/C (dose: 0.13 mg/kg/injection, schedule: Q01DX009 (ip), vehicle: Klucel (hydroxypropylcellulose) (HPC)): 122 % of control
T/C (dose: 0.13 mg/kg/injection, schedule: Q04DX003 (ip), vehicle: water): 95 % of control
T/C (dose: 0.25 mg/kg/injection, schedule: Q01DX009 (ip), vehicle: Klucel (hydroxypropylcellulose) (HPC)): 123 % of control
T/C (dose: 0.25 mg/kg/injection, schedule: Q04DX003 (ip), vehicle: water): 112 % of control
T/C (dose: 0.5 mg/kg/injection, schedule: Q04DX003 (ip), vehicle: water): 113 % of control
T/C (dose: 0.67 mg/kg/injection, schedule: Q01DX009 (ip), vehicle: Klucel (hydroxypropylcellulose) (HPC)): 103 % of control
T/C (dose: 1.0 mg/kg/injection, schedule: Q04DX003 (ip), vehicle: water): 103 % of control
T/C (dose: 1.5 mg/kg/injection, schedule: Q01DX009 (ip), vehicle: Klucel (hydroxypropylcellulose) (HPC)): 105 % of control
T/C (dose: 2.0 mg/kg/injection, schedule: Q04DX003 (ip), vehicle: water): 91 % of control

Clc1ccc(N=Cc2cccs2)cc1Cl
T/C [1]: 110 % of control
T/C [2]: 107 % of control
T/C [3]: 110 % of control

Nc1ccc2nc[nH]c2c1
T/C (dose: 25.0 mg/kg/injection, schedule: Q04DX002 (ip), vehicle: Klucel (hydroxypropylcellulose) (HPC)): 101 % of control
T/C (dose: 50.0 mg/kg/injection, schedule: Q04DX002 (ip), vehicle: Klucel (hydroxypropylcellulose) (HPC)): 104 % of control
T/C (dose: 100.0 mg/kg/injection, schedule: Q04DX002 (ip), vehicle: Klucel (hydroxypropylcellulose) (HPC)): 101 % of control and 90 % of control

COC(=O)c1nnn(-c2ccc(S(N)(=O)=O)cc2)c1C(=O)c1ccc(Cl)c(Cl)c1
T/C [4]: 109 % of control
T/C [5]: 109 % of control
T/C [6]: 94 % of control

CCOP(=O)(N(CCCl)CCCl)N1CCc2ccccc2C1 (stereo not given)
T/C (dose: 12.5 mg/kg/injection, schedule: Q04DX003 (ip), vehicle: saline with Tween-80): 103 % of control
T/C (dose: 25.0 mg/kg/injection, schedule: Q04DX003 (ip), vehicle: saline with Tween-80): 98 % of control
T/C (dose: 50.0 mg/kg/injection, schedule: Q04DX003 (ip), vehicle: saline with Tween-80): 103 % of control
T/C [7]: 110 % of control
T/C [8]: 112 % of control
T/C [9]: 119 % of control

CN(C)CCCNC(=O)c1nn(-c2ccccc2)c2c1N(C)S(=O)(=O)c1ccccc1-2
T/C (dose: 50.0 mg/kg/injection, schedule: Q01DX005 (ip), vehicle: saline): 92 % of control
T/C (dose: 100.0 mg/kg/injection, schedule: Q01DX005 (ip), vehicle: saline): 99 % of control
T/C (dose: 200.0 mg/kg/injection, schedule: Q01DX005 (ip), vehicle: saline): 101 % of control

C#CCOCC1CO1 (stereo not given)
T/C [10]: 110 % of control
T/C [11]: 110 % of control
T/C [12]: 115 % of control

O=c1c(CSc2c(-c3ccccc3)c(=O)c2=O)c(-c2ccccc2)c1=O
T/C (dose: 100.0 mg/kg/injection, schedule: Q01DX001 (ip), vehicle: saline with Tween-80): 101 % of control
T/C (dose: 200.0 mg/kg/injection, schedule: Q01DX001 (ip), vehicle: saline with Tween-80): 104 % of control
T/C (dose: 400.0 mg/kg/injection, schedule: Q01DX001 (ip), vehicle: saline with Tween-80): 95 % of control

C=CCSC(C)=O
T/C (dose: 30.0 mg/kg/injection, schedule: Q01DX005 (ip), vehicle: saline with Tween-80): 98 % of control
T/C [4]: 100 % of control
T/C [5]: 99 % of control

O=C1CCC(c2nc3ccccc3[nH]2)N1Cc1ccccc1 (stereo not given)
T/C [4]: 97 % of control
T/C [5]: 90 % of control
T/C [6]: 89 % of control

COc1cc2cc(c1Cl)N1CCC(C)(O)C(=O)NC(C)C(=O)OC(CC1=O)C1(C)OC1C(C)C1CC(O)(NC(=O)O1)C(OC)/C=C\C=C(\C)C2OC (stereo not given)
T/C (dose: 4.0 micrograms/kg/injection, schedule: Q01DX009 (ip), vehicle: distilled water + alcohol): 150 % of control
T/C (dose: 16.0 micrograms/kg/injection, schedule: Q01DX009 (ip), vehicle: distilled water + alcohol): 157 % of control
T/C (dose: 32.0 micrograms/kg/injection, schedule: Q01DX009 (ip), vehicle: distilled water + alcohol): 150 % of control

O=C(Nc1ccc2ccccc2c1)C1C(=O)C(=O)N(c2ccc3ccccc3c2)C1=O (stereo not given)
T/C [1]: 106 % of control
T/C [2]: 106 % of control
T/C [3]: 108 % of control

C=C[C@H]1[C@H](OC2OC(CO)C(O)C(O)C2O)OC=C2C(=O)OCC[C@H]21 (stereo not given in full)
T/C (dose: 0.75 mg/kg/injection, schedule: Q01DX005 (ip), vehicle: water): 95 % of control
T/C (dose: 1.5 mg/kg/injection, schedule: Q01DX005 (ip), vehicle: water): 95 % of control
T/C (dose: 3.0 mg/kg/injection, schedule: Q01DX005 (ip), vehicle: water): 93 % of control
T/C (dose: 6.0 mg/kg/injection, schedule: Q01DX005 (ip), vehicle: water): 93 % of control

CS(=O)(=O)OCC(=O)NCC(O)CNC(=O)COS(C)(=O)=O
T/C (dose: 200.0 mg/kg/injection, schedule: Q01DX009 (ip), vehicle: saline with Tween-80): 175 % of control
T/C [8]: 181 % of control
T/C [9]: 162 % of control and 181 % of control

CCSSC(=Nc1ccccc1)OCC(C)C
T/C (dose: 50.0 mg/kg/injection, schedule: Q01DX009 (ip), vehicle: saline + Tween-80 + alcohol): 107 % of control
T/C (dose: 100.0 mg/kg/injection, schedule: Q01DX009 (ip), vehicle: saline + Tween-80 + alcohol): 106 % of control
T/C (dose: 200.0 mg/kg/injection, schedule: Q01DX009 (ip), vehicle: saline + Tween-80 + alcohol): 123 % of control

O=C(O)CNC(=O)CNC(=O)C(Cc1ccccc1)NC(=O)OCc1ccccc1 (stereo not drawn) (Cbz-[ξF]-Gly-Gly-OH)
T/C [13]: 100 % of control
T/C [14]: 99 % of control
T/C [15]: 91 % of control

CC(=O)NCCSC(NC(=O)c1ccccc1)C(=O)O (stereo not given)
T/C [1]: 90 % of control
T/C [2]: 101 % of control
T/C [3]: 98 % of control

COc1ccc(C2C(C#N)C(=O)NC(=O)C2C#N)cc1OC (stereo not given)
T/C [1]: 98 % of control
T/C [2]: 107 % of control
T/C [3]: 111 % of control

CC1(C(=O)O)C2[Se]c3cc[se]c3C2C1(C)C(=O)O (stereo not given)
T/C [13]: 100 % of control
T/C [14]: 100 % of control
T/C [15]: 104 % of control

CCCCC1=C([Si](C)(C)C)C(=O)c2ccccc2C1=O
T/C (dose: 25.0 mg/kg/injection, schedule: Q01DX005 (ip), vehicle: Klucel (hydroxypropylcellulose) (HPC)): 109 % of control
T/C (dose: 50.0 mg/kg/injection, schedule: Q01DX005 (ip), vehicle: Klucel (hydroxypropylcellulose) (HPC)): 110 % of control and 111 % of control and 113 % of control
T/C (dose: 100.0 mg/kg/injection, schedule: Q01DX005 (ip), vehicle: Klucel (hydroxypropylcellulose) (HPC)): 115 % of control and 86 % of control
T/C (dose: 200.0 mg/kg/injection, schedule: Q01DX005 (ip), vehicle: Klucel (hydroxypropylcellulose) (HPC)): 110 % of control and 118 % of control

CC[C@]12CCCN3CCc4c(n(c5ccccc45)C(=O)C1)[C@@H]32
T/C [1]: 95 % of control
T/C [2]: 107 % of control
T/C [3]: 91 % of control

O/N=C/c1cc(I)cc(I)c1O
T/C [13]: 90 % of control
T/C [14]: 99 % of control
T/C [15]: 99 % of control

C=CCN(CC=C)c1nc(N)nc(N)n1
T/C [10]: 96 % of control
T/C [11]: 90 % of control
T/C [12]: 121 % of control

COc1ccc(CC(=O)NCCc2ccc3cc(OC)c(OC)cc3c2)cc1OC
T/C [7]: 100 % of control
T/C [8]: 100 % of control
T/C [9]: 100 % of control

COc1cc(Cc2ccc3c(c2)OCO3)cc(OC)c1OC
T/C (dose: 100.0 mg/kg/injection, schedule: Q01DX001 (ip), vehicle: saline): 102 % of control
T/C (dose: 200.0 mg/kg/injection, schedule: Q01DX001 (ip), vehicle: saline): 102 % of control
T/C (dose: 400.0 mg/kg/injection, schedule: Q01DX001 (ip), vehicle: saline): 99 % of control

COc1cc(O)c(Cc2ccc3c(c2)OCO3)cc1O
T/C (dose: 2.5 mg/kg/injection, schedule: Q01DX009 (ip), vehicle: saline with Tween-80): 100 % of control
T/C (dose: 5.0 mg/kg/injection, schedule: Q01DX009 (ip), vehicle: saline with Tween-80): 100 % of control
T/C (dose: 10.0 mg/kg/injection, schedule: Q01DX009 (ip), vehicle: saline with Tween-80): 115 % of control
